Test results reported in patent publication US20090023666A1, “Modulators of Hypoxia Inducible Factor-1 and Related Uses” (priority 2006, published 2009).
pIC50: −log10 of the molar value. Entries after “also recorded” stand apart in the source; their conditions may differ. Where two headings read alike, the source gives them in different places.

Columns and labels:
MES-SA-DX5 = experiment: Anti-proliferative activity, MES-SA-DX5; type: cell-based; conditions: Homo sapiens
Description: (§1) FIG. 8 is a graph depicting the mRNA levels of α-1 and α-3 isoforms quantitated by real time RT-PCR (TaqMan) using fluorescent labeled TaqMan probes. Anti-proliferation (IC50 values) activity of BNC4 on indicated cell lines was determined by MTS assay. Total alpha levels (al+a3) were plotted against (1/IC50) X100 values.

Panc-1 tumors = experiment: In vivo activity against Panc-1 human pancreatic xenograft; design: species or system nude mice; conditions: SC, CI
Description: Panc-1 tumors were injected subcutaneously (sc) into the flanks of male nude mice. After the tumors reached 60 mg in size, osmotic pumps (model 2002, Alzet Inc., flow rate 0.5 μl/hr) containing 15 mg/ml of BP244 were implanted sc on the opposite sides of the mice. The control animals received pumps containing vehicle (10% captisol, Cyclex Inc.). The mice treated with standard chemotherapy agent received intra-peritoneal injections of Gemcitabine at 40 mg/kg every 3 days for 4 treatments (q3d×4). The experiment was terminated when the control group tumor size reached an average of about 1 gram. Upon termination, the mice were weighed, sacrificed and their tumors excised. The tumors were weighed and the mean tumor weight per group was calculated.
A titration experiment was first performed on BP244 to determine its minimum effective dose against Panc-1 human pancreatic xenograft in nude mice. BP244 (sc, osmotic pumps) was first tested at 15, 10 and 5 mg/ml using Alzet pumps as in previous experiments. Gemcitabine (40 mg/kg; q3d×4, i.p.) was also included in the experiment as a comparison. […]

MCF-7 = experiment: Anti-proliferative activity, MCF-7; type: cell-based; conditions: Homo sapiens
Description: as §1

Caki-1 (CAKI) = experiment: cells; type: cell-based; conditions: Homo sapiens
Description: as §1

A549 = experiment: cells; type: cell-based; conditions: Homo sapiens
Description: as §1

C33A = experiment: Anti-proliferative activity, C33A; type: cell-based; conditions: Homo sapiens, C-33-A, read-out: Anti-Proliferative activity IC50
Description: as §1

MES-SA = experiment: Anti-proliferative activity, MES-SA; type: cell-based; conditions: Homo sapiens, read-out: Anti-Proliferative activity IC50
Description: as §1

SNB-75 = experiment: Anti-proliferative activity, SNB-75; type: cell-based; conditions: Homo sapiens
Description: as §1

CCRF-CEM = experiment: Anti-proliferative activity, CCRF-CEM; type: cell-based; conditions: Homo sapiens, read-out: Anti-Proliferative activity IC50
Description: as §1

HCT116 = experiment: Anti-proliferative activity, HCT116; type: cell-based; conditions: Homo sapiens
Description: as §1

HIF-1α and HIF-2α = experiment: Induction of HIF-1α and HIF-2α during hypoxia (Western blotting); type: cell-based; conditions: for HIF-1α and HIF-2α protein expression: Caki-1, A549, Panc-1, Hep3B cells, hypoxia (1% O2) 4 hours, BNC4 0.1 μM, BP228 and BP244 0.1 and 1.0 μM; for protein expression of HIF-1β, NIK, Hsp90, DR4, Bcl-2 and β-actin: same cells and treatment, specificity
Description: Caki-1 (renal cancer), A549 (lung cancer), Panc-1 (pancreatic cancer) and Hep3B (liver cancer) cells were treated with BNC4, BP228 and BP244 under hypoxic conditions. The cells were treated with indicated each compound for 4 hours under normoxic (N, 20% O2) or hypoxic (H, 1% O2) conditions. Expression of HIF-1α, HIF-1β and β-actin and other proteins was analyzed by Western blotting. The HIF-1α and HIF-2α protein levels increased in cells cultured under these conditions for 4 hours without any treatment. […] The inhibition was specific as levels of constitutively expressed HIF-1β were not affected by any of the drugs.

VEGF = experiment: Hypoxia induced VEGF secretion (ELISA); type: cell-based; conditions: hypoxic conditions, Hep3B, Caki-1 16 hours (FIG. 6)
Description: FIG. 6 is two graphs depicting the effect of BP228 and BP244 on secretion of VEGF. Caki-1 cells were treated with indicated compound and cultured under hypoxia for 16 hours. VEGF levels in conditioned medium were measured using an ELISA kit.
The decrease in HIF-1 correlated closely with declining levels of VEGF secretion. […] Caki-1 cells were treated with indicated compound and cultured under hypoxia for 16 hours. VEGF levels in conditioned medium were measured using an ELISA kit.

IGR-OV1 = experiment: Anti-proliferative activity, IGR-OV1; type: cell-based; conditions: Homo sapiens
Description: as §1

HOP-18 = experiment: Anti-proliferative activity, HOP-18; type: cell-based; conditions: Homo sapiens
Description: as §1

786-O = experiment: Anti-proliferative activity, 786-O; type: cell-based; conditions: Homo sapiens
Description: as §1

RPMI-8226 = experiment: Anti-proliferative activity, RPMI-8226; type: cell-based; conditions: Homo sapiens
Description: as §1

HT29 = experiment: Anti-proliferative activity, HT29; type: cell-based; conditions: Homo sapiens
Description: as §1

[1] = test system: HIF-1α sensitive A549 sentinel line; experiment: HIF-1α sensitive A549 sentinel line reporter activity (FACS); type: cell-based; conditions: 24 hours, 5 nM (FIG. 4)
Description: FIGS. 4A-4D are graphs depicting FACS analysis of beta-gal activity in an A549 sentinel line treated with 5 nM of BNC4 (FIG. 4A), BP228 (FIG. 4B), and BP244 (FIG. 4C) in comparison to vehicle only (shown as the shaded portion of the graph) for 24 hours. The graphs indicate frequency of cells (Y-axis) and intensity of fluorescence (X-axis) as measure of pathway activity. The bar chart (FIG. 4D) depicts the relative median fluorescent units of FACS curves.
By using the HIF-1α sensitive A549 sentinel line, the cell line was incubated with either BNC4, BP228 or BP244 for 24 hours and reporter activity was measured by FACS analysis.

[2] = MES-SA/Dx5, read-out: Anti-Proliferative activity IC50
[3] = MCF7, read-out: Anti-Proliferative activity IC50
[4] = CAKI-1, read-out: Anti-Proliferative activity IC50
[5] = A549, read-out: Anti-Proliferative activity IC50
[6] = SNB-75, read-out: Anti-Proliferative activity IC50
[7] = HCT-116, read-out: Anti-Proliferative activity IC50
[8] = IGROV-1, read-out: Anti-Proliferative activity IC50
[9] = HOP-18, read-out: Anti-Proliferative activity IC50
[10] = 786-0, read-out: Anti-Proliferative activity IC50
[11] = RPMI-8226, read-out: Anti-Proliferative activity IC50
[12] = HT-29, read-out: Anti-Proliferative activity IC50

What does the source list for `C[C@@H]1O[C@@H](O[C@@H]2C=C3CC[C@@H]4[C@H](CC[C@]5(C)[C@@H](c6ccc(=O)oc6)CC[C@]45O)[C@@]3(C)CC2)[C@H](O)[C@H](O)[C@H]1O` [BNC4, proscillaridin, reference compound]?
pIC50 (MES-SA-DX5; MES-SA-DX5, Uterine, read-out: Anti-Proliferative activity IC50): 7.94; % TGI (d24) (Panc-1 tumors; 15 mg/ml): 87%; % Wt Change (d24) (Panc-1 tumors; 15 mg/ml): −2.69%; Av. Tumor Weight (Panc-1 tumors; 15 mg/ml): 243.9 mg; pIC50 (MCF-7; MCF7, MCF-7, Breast (ER+), read-out: Anti-Proliferative activity IC50): 8.08; pIC50 (Caki-1 (CAKI); CAKI-1, CAKI, Renal, read-out: Anti-Proliferative activity IC50): 8.12; pIC50 (A549; A549, NSCL, read-out: Anti-Proliferative activity IC50): 8.46; pIC50 (C33A; C33A, Cervical): 7.87; pIC50 (MES-SA; Uterine): 8.06; pIC50 (SNB-75; SNB-75, CNS, read-out: Anti-Proliferative activity IC50): 7.77; pIC50 (CCRF-CEM; Leukemia): 8.20; pIC50 (HCT116; HCT-116, HCT116, Colon, read-out: Anti-Proliferative activity IC50): 8.09; HIF-1α and HIF-2α protein expression (HIF-1α and HIF-2α): inhibition of hypoxia-mediated HIF-1α induction; also recorded: almost complete inhibition; protein expression of HIF-1β, NIK, Hsp90, DR4, Bcl-2 and β-actin (HIF-1α and HIF-2α): no effect; VEGF secretion (VEGF): reduce VEGF secretion; pIC50 (IGR-OV1; IGROV-1, IGR-OV1, Ovarian, read-out: Anti-Proliferative activity IC50): 7.91; pIC50 (HOP-18; HOP-18, NSCL, read-out: Anti-Proliferative activity IC50): 8.04; pIC50 (786-O; 786-0, 786-O, Renal, read-out: Anti-Proliferative activity IC50): 8.08; pIC50 (RPMI-8226; RPMI-8226, Myeloma, read-out: Anti-Proliferative activity IC50): 7.74; pIC50 (HT29; HT-29, HT29, Colon, read-out: Anti-Proliferative activity IC50): 8.05; reporter activity in A549 sentinel line [1]: active in inhibiting the reporter activity

What does the source list for `C[C@]12CC/C(=N\OCCN3CCCCC3)C=C1CC[C@@H]1[C@@H]2CC[C@]2(C)[C@@H](c3ccc(=O)oc3)CC[C@]12O` [BP228]?
pIC50 (MES-SA-DX5; [2]): 7.80; % TGI (d24) (Panc-1 tumors; 10 mg/ml): 66%; % Wt Change (d24) (Panc-1 tumors; 10 mg/ml): 1.97%; Av. Tumor Weight (Panc-1 tumors; 10 mg/ml): 488.0 mg; % TGI (d24) (Panc-1 tumors; 15 mg/ml): 79%; % Wt Change (d24) (Panc-1 tumors; 15 mg/ml): 4.88%; Av. Tumor Weight (Panc-1 tumors; 15 mg/ml): 327.0 mg; pIC50 (MCF-7; [3]): 7.70; pIC50 (Caki-1 (CAKI); [4]): 7.89; pIC50 (A549; [5]): 8.14; pIC50 (C33A): 8.14; pIC50 (MES-SA): 7.94; pIC50 (SNB-75; [6]): 7.72; pIC50 (CCRF-CEM): 8.15; pIC50 (HCT116; [7]): 8.19; HIF-1α and HIF-2α protein expression (HIF-1α and HIF-2α): inhibition of hypoxia-mediated HIF-1α induction; also recorded: almost complete inhibition; protein expression of HIF-1β, NIK, Hsp90, DR4, Bcl-2 and β-actin (HIF-1α and HIF-2α): no effect; VEGF secretion (VEGF): Attenuate Hypoxia Induced VEGF Secretion; pIC50 (IGR-OV1; [8]): 7.50; pIC50 (HOP-18; [9]): 7.72; pIC50 (786-O; [10]): 8.05; pIC50 (RPMI-8226; [11]): 7.59; pIC50 (HT29; [12]): 7.72; reporter activity in A549 sentinel line [1]: active in inhibiting the reporter activity

How did the pIC50 (MES-SA-DX5; [2]) turn out when `C[C@@H]1O[C@@H](O[C@@H]2C=C3CC[C@@H]4[C@H](CC[C@]5(C)[C@@H](c6ccc(=O)oc6)CC[C@]45O)[C@@]3(C)CC2)[C@H](O)[C@H](O)[C@H]1N` [BP244] was run?
The pIC50 was 7.87.

And the “% TGI (d24)” value (Panc-1 tumors; 5 mg/ml)?
The value was 71%.

What about the “% Wt Change (d24)” value (Panc-1 tumors; 5 mg/ml) of the same molecule?
Its value is −4.63%.

And the “Av. Tumor Weight” value (Panc-1 tumors; 5 mg/ml)?
Its value is 524.4 mg.

What about the “% TGI (d24)” value (Panc-1 tumors; 10 mg/ml) of the same molecule?
Its value is 98%.

What about the “% Wt Change (d24)” value (Panc-1 tumors; 10 mg/ml) of the same molecule?
The value was 0.93%.

What about the “Av. Tumor Weight” value (Panc-1 tumors; 10 mg/ml) of the same molecule?
The value was 107.3 mg.

What about the “% TGI (d24)” value (Panc-1 tumors; 15 mg/ml) of the same molecule?
The value was 102%.

And the “% Wt Change (d24)” value (Panc-1 tumors; 15 mg/ml)?
The value was 5.26%.

And the “Av. Tumor Weight” value (Panc-1 tumors; 15 mg/ml)?
Its value is 44.2 mg.

And the pIC50 (MCF-7; [3])?
Its pIC50 is 8.09.

What about the pIC50 (Caki-1 (CAKI); [4]) of the same molecule?
Its pIC50 is 8.10.

What about the pIC50 (A549; [5]) of the same molecule?
The pIC50 was 8.32.

And the pIC50 (C33A)?
Its pIC50 is 8.29.

What about the pIC50 (MES-SA) of the same molecule?
The pIC50 was 8.10.

And the pIC50 (SNB-75; [6])?
Its pIC50 is 7.89.

What about the pIC50 (CCRF-CEM) of the same molecule?
Its pIC50 is 8.33.

And the pIC50 (HCT116; [7])?
Its pIC50 is 8.29.

And the “HIF-1α and HIF-2α protein expression” value (HIF-1α and HIF-2α)?
The value was “inhibition of hypoxia-mediated HIF-1α induction; also recorded: almost complete inhibition”.

What about the “protein expression of HIF-1β, NIK, Hsp90, DR4, Bcl-2 and β-actin” value (HIF-1α and HIF-2α) of the same molecule?
Its value is “no effect”.

What about the VEGF secretion (VEGF) of the same molecule?
Its VEGF secretion is “reduce VEGF secretion”.

And the pIC50 (IGR-OV1; [8])?
The pIC50 was 7.92.

And the pIC50 (HOP-18; [9])?
The pIC50 was 8.14.

What about the pIC50 (786-O; [10]) of the same molecule?
The pIC50 was 8.10.

What about the pIC50 (RPMI-8226; [11]) of the same molecule?
The pIC50 was 7.97.

What about the pIC50 (HT29; [12]) of the same molecule?
The pIC50 was 8.09.

What about the “reporter activity in A549 sentinel line” value [1] of the same molecule?
The value was “active in inhibiting the reporter activity”.
